Experimental data reported in patent publication US9827292B2, “Use of KGF in the treatment of menopausal disorders” (Università degli Studi di Roma “La Sapienza”, priority 2012, dated 2017).

Test system: KGFR
Test: KGFR mRNA expression by real-time PCR in MCF-7 cells
Format: cell-based, human
Details: E2 20 ng/ml, 24 h, normalised to 18s, FIG. 3B
Description: The oestrogen receptor α-positive MCF-7 human breast adenocarcinoma cell line, acquired from American Type Culture Collection (no. HTB-22, ATCC-LGC Promochem, Teddington, UK), was cultured in Dulbecco's modified eagle's medium (DMEM; Invitrogen, Karlsruhe, Germany), supplemented with 10% foetal bovine serum (FBS; Invitrogen) and antibiotics. Primary cultures of human oestrogen-sensitive keratinocytes (KCs) were established from 1 cm^2 full-thickness mucosal biopsy of the vaginal vestibule. Following enzymatic dissociation, the keratinocytes were seeded onto culture plates coated with collagen IV (10 mg/ml), as previously reported [Panici et al, 2007], and were maintained in basal medium of the keratinocytes (KBM, Lonza) supplemented with aliquots of KGM (Lonza), with medium change twice a week. […]
The cells were harvested and the total RNA was extracted with the use of TRIzol reagent (Invitrogen). cDNA was generated with oligo (dT) from 1 μg of RNA using the SuperScript III reverse transcriptase kit (Invitrogen). After reverse transcription, the abundance of KGFR in MCF-7 cells treated and untreated with E2 was quantified by Q-RT-PCR. […] Relative quantification was performed using mRNA 18s as an endogenous control. The data were expressed as a rise of mRNA of KGFR compared to the control.

With `C[C@]12CC[C@@H]3c4ccc(O)cc4CC[C@H]3[C@@H]1CC[C@@H]2O` [E2, 17β-oestradiol] the “KGFR mRNA expression compared to untreated cells” value was 2.2 fold increase.
